# Where two headings read alike, the source gives them in different places.
# Columns and labels:
# NCI-H1703 cells = assay: GLS Cell Proliferation Assay (NCI-H1703 cell proliferation); format: cell-based
# Excerpt: (§1) The following assays were used to measure the effects of the compounds described herein: a) GLS Enzyme Potency Assay; b) GLS Cell Potency Assay; c) GLS Cell Proliferation Assay. During the description of the assays, generally: • i. The following abbreviations have been used: CO2=Carbon dioxide; DMEM=Dulbecco's Modified Eagle Medium; DMSO=Dimethyl sulphoxide; EDTA=Ethylenediaminetetraacetic acid; EGTA=Ethylene glycol tetraacetic acid; FCS=Foetal calf serum; h=Hour(s); NBS=Non-binding surface; SDS=Sodium dodecyl sulphate; TRIS=Tris(Hydroxymethyl)aminomethane. • ii. IC50 values were calculated using a smart fitting model in Genedata.
# Assay c): GLS Cell Proliferation Assay
# The ability of compounds to inhibit cell growth was measured using a 384 well plate NCI-H1703 cell proliferation assay. NCI-H1703 cells were grown in phenol red free RPMI1640, 10% FCS and 2 mM glutamine and seeded at a density of 750 cells per well in 40 μl of growth medium into clear-bottom 384 well assay plates (Corning product code 3712) and incubated for 24 h at 37° C., 5% CO2. Test compounds were prepared by dilution in 100% DMSO to give the correct dose range for 12 point concentration response and an appropriate volume (5-120 nl) dispensed directly into the assay plates containing plated cells. DMSO concentration was maintained at 0.3% by back filling with DMSO solution. Plates were incubated for 5 days at 37° C., 5% CO2, Sytox Green and Saponin added to final concentration of 2 μM and 0.25% respectively and incubated for 6 h prior to analysis. Plates were read on an Acumen eX3 (TTP Labtech) using 488 nm excitation and FITC filter set (500-530 nm) for emission. IC50 values were calculated by curve fitting to max inhibition of day zero growth using GeneData software analysis.
# [1] = target: cellular GLS activity in PC3 cells (Homo sapiens (Human), UniProt O94925); assay: GLS Cell Potency Assay (PC3 coupled assay measuring cellular glutamate depletion); format: cell-based; conditions: PC3 cells, 6 h incubation, cellular glutamate depletion; read-out: Assay b) GLS cell MOA Mean IC50
# cellular GLS activity in PC3 cells, sequence (O94925 55-669): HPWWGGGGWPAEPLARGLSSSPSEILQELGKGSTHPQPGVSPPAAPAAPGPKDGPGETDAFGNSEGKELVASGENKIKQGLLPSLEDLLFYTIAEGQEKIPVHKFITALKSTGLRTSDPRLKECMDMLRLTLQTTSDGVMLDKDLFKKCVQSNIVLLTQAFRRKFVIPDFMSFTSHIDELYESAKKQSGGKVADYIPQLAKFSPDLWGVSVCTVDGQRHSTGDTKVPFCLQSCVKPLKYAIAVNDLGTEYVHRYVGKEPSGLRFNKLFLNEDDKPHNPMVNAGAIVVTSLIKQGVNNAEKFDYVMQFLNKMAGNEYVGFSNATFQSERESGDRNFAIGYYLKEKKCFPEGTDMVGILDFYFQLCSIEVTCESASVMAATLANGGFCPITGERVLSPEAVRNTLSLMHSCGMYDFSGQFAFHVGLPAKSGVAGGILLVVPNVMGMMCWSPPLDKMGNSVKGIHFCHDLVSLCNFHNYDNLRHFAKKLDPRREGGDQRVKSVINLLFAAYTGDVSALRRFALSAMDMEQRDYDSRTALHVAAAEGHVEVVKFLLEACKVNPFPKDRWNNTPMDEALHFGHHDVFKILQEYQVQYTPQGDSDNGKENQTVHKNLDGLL
# Excerpt: as §1
# Assay b): GLS Cell Potency Assay
# Compounds were assessed for their potential to inhibit cellular GLS activity by use of a PC3 coupled assay measuring cellular glutamate depletion. […] DMSO concentration was maintained at 0.3% by back filling with DMSO solution. PC3 cells were grown in phenol free DMEM, 10% dialyzed FCS, 2 mM glutamine and following dispersal by trypsinisation were plated at 5.6×10^3 cells per well in 40 μl of growth medium directly into the 384 well assay plates containing dispensed compound. After incubation for 6 h at 37° C., 5% CO2 growth media was aspirated and cells lysed in 15 μl of buffer containing 10 mM TRIS pH7.4, 100 mM NaCl, 1 mM EDTA, 1 mM EGTA, 1 mM NaF, 20 mM Na4P2O7, 2 mM Na3VO4, 1% Triton X-100, 10% glycerol, 0.1% SDS and 0.5% deoxycholate. 4 μl Of cell lysate was then transferred to a 384 well NBS plate (Corning product code 3575) and 35 μl of […] Amplex Red, 0.1375 U/mL Horseradish Peroxidase, 0.044 U/mL glutamate oxidase, 100 mM TRIS pH7.5 was added.
# GLS1 = GLS1 (Homo sapiens (Human), UniProt O94925); assay: GLS Enzyme Potency Assay (Glutamate Oxidase/AmplexRed coupled assay); format: biochemical
# GLS1, sequence (O94925 63-669): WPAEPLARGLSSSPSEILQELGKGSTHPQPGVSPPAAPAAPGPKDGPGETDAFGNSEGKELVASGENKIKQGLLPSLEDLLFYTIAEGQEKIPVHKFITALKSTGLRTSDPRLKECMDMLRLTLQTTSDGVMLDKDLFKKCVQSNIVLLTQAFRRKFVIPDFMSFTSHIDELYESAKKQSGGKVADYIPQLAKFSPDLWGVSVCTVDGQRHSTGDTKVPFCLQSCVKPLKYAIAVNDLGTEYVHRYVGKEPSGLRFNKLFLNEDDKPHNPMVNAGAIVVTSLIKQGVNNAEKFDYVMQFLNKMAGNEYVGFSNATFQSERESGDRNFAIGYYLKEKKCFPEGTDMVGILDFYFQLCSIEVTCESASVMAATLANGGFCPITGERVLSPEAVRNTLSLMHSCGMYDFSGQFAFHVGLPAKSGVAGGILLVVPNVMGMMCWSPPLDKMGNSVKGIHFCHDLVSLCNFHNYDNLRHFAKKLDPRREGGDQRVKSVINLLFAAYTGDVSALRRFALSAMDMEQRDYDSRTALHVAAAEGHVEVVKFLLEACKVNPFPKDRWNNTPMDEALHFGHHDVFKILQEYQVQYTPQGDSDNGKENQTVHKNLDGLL
# Excerpt: as §1
# Assay a): GLS Enzyme Potency Assay
# A Glutamate Oxidase/AmplexRed coupled assay was used to measure the ability of compounds to bind to and inhibit the activity of GLS1 in vitro. […] GLS1 was diluted to 2×working concentration and incubated at room temperature to allow the tetrameric/dimeric forms to reach steady state. Assay measurements were performed in buffer comprising 50 mM TRIS pH 7.8, 100 mM NaPO4, pH 7.8, 0.001% v/v Tween20. […] DMSO concentration was maintained at 2% by back filling with DMSO solution. […] 3 μL of 100 mM glutamine diluted in assay buffer was then added and the reaction incubated at room temperature for 60 minutes. […] An artefact version of the assay where the 6His tagged GLS protein and glutamine were replaced with assay buffer was also used to rule out non specific effects on the assay components.
# [2] = Homo sapiens, 120 h; NCI-H1703 cells, 5 days incubation, Sytox Green; read-out: Assay c) Prolif Mean IC50
# [3] = Homo sapiens, NCI-H1703, 120 h, NCI-H1703 cells, 5 days incubation, Sytox Green; read-out: Assay c) Prolif Mean IC50
# [4] = recombinant 6His tagged GLS protein (amino acids 63-669), 60 minutes reaction with glutamine
IC50 [1] [nM],IC50 (GLS1) [nM],IC50 (GLS1; [4]) [nM],Structure (SMILES),IC50 (NCI-H1703 cells; [2]) [nM],IC50 (NCI-H1703 cells; [3]) [nM],"IC50 (NCI-H1703 cells; NCI-H1703 cells, 5 days incubation, Sytox Green; read-out: Assay c) Prolif Mean IC50) [nM]"
10.2,–,2260,"CN(C)[C@@H](C(=O)Nc1nnc(N[C@@H]2CCN(c3cccnn3)C2)s1)c1cccc(OC(F)(F)F)c1 [Example 14, (2R)-2-(dimethylamino)-N-[5-[[(3R)-1-pyridazin-3-ylpyrrolidin-3-yl]amino]-1,3,4-thiadiazol-2-yl]-2-[3-(trifluoromethoxy)phenyl]acetamide]",–,5.23,–
10.7,–,187,"Cc1ccccc1[C@@H](C(=O)Nc1nnc(N[C@@H]2CCN(c3cccnn3)C2)s1)N(C)C [Example 17, (2S)-2-(dimethylamino)-2-(o-tolyl)-N-[5-[[(3R)-1-pyridazin-3-ylpyrrolidin-3-yl]amino]-1,3,4-thiadiazol-2-yl]acetamide]",163,–,–

# Continued, compound first:
Structure (SMILES),IC50 [1] [nM],IC50 (GLS1) [nM],IC50 (GLS1; [4]) [nM],IC50 (NCI-H1703 cells; [2]) [nM],IC50 (NCI-H1703 cells; [3]) [nM],"IC50 (NCI-H1703 cells; NCI-H1703 cells, 5 days incubation, Sytox Green; read-out: Assay c) Prolif Mean IC50) [nM]"
"O=C(Nc1nnc(N[C@@H]2CCN(c3ccc(F)nn3)C2)s1)[C@@H](c1cccc(OC(F)(F)F)c1)N1CCC1 [Example 12(b), (2R)-2-(azetidin-1-yl)-N-[5-[[(3R)-1-(6-fluoropyridazin-3-yl)pyrrolidin-3-yl]amino]-1,3,4-thiadiazol-2-yl]-2-[3-(trifluoromethoxy)phenyl]acetamide]",1.41,246,–,12.9,–,–
"CN(C)[C@H](C(=O)Nc1nnc(N[C@@H]2CCN(c3cccnn3)C2)s1)c1cccc(C#N)c1 [Example 13, (2S)-2-(3-cyanophenyl)-2-(dimethylamino)-N-[5-[[(3R)-1-pyridazin-3-ylpyrrolidin-3-yl]amino]-1,3,4-thiadiazol-2-yl]acetamide]",11.3,226,–,76.8,–,–
"COc1ccc([C@H](C(=O)Nc2nnc(N[C@@H]3CCN(c4cccnn4)C3)s2)N(C)C)cc1 [Example 15, (2R)-2-(dimethylamino)-2-(4-methoxyphenyl)-N-[5-[[(3R)-1-pyridazin-3-ylpyrrolidin-3-yl]amino]-1,3,4-thiadiazol-2-yl]acetamide]",22.2,–,3750,–,152,–
"COc1ccc([C@@H](C(=O)Nc2nnc(N[C@@H]3CCN(c4cccnn4)C3)s2)N(C)C)cc1 [Example 16, (2S)-2-(dimethylamino)-2-(4-methoxyphenyl)-N-[5-[[(3R)-1-pyridazin-3-ylpyrrolidin-3-yl]amino]-1,3,4-thiadiazol-2-yl]acetamide]",4.76,–,198,–,131,–
"CN(C)[C@H](C(=O)Nc1nnc(N[C@@H]2CCN(c3cccnn3)C2)s1)c1cccc(OC(F)(F)F)c1 [Example 18, (2S)-2-(dimethylamino)-N-[5-[[(3R)-1-pyridazin-3-ylpyrrolidin-3-yl]amino]-1,3,4-thiadiazol-2-yl]-2-[3-(trifluoromethoxy)phenyl]acetamide]",1.1,–,182,–,–,3.51
